From patent publication US20020137929A1, “1 - (3-heterocyclylphenyl) isothiourea, -isourea, -guanidine and -amidine herbicidal agents” (Intellectual Property Department, BASF Aktiengesellschaft, priority 1998, published 2002)

Columns and labels:
[1] = system: SAGPY (Arrowhead (Pygmaea)); assay: Preemergence weed control under flooded paddy conditions; assay type: in vivo, Sagittaria pygmaea; details: rated 3-4 weeks after treatment
How it was run: (§1)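 Silt loam, seeds in top 0.5 cm; flood held 1.5-3 cm; test cpd as acetone/water 50/50 into flood water, ~0.0313-0.500 kg/ha a.i.; greenhouse 3-4 wk; visual 0-9 score vs control.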

[2] = system: CYPSE (Flatsedge); assay: as above; assay type: in vivo, Cyperus serotinus; details: rated 3-4 weeks after treatment
How it was run: as §1

[3] = system: CASOB (Sicklepod); assay: Postemergence herbicidal evaluation; assay type: in vivo, Cassia obtusifolia; details: postemergence
How it was run: (§2)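 Rate range approx. 0.0156–0.500 kg/ha. Foliar application at 40 psi to ~2-week seedlings; surfactant 0.5% TWEEN 20 in 50/50 acetone/water. Evaluation 4–5 wk post-treatment by 0–9 visual injury score, means of replicate tests.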

[4] = system: ORYSAT (Rice, Tebonnet); assay: Preemergence herbicidal evaluation; assay type: in vivo, Oryza sativa, (L.) Tebonnet; details: rated 4-5 weeks after treatment, rating scale 0-9
How it was run: (§3)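 Scores use a 0–9 visual scale covering stand, vigor, malformation, size and chlorosis relative to controls, rated four to five weeks after treatment. Before emergence, soil-planted seeds were sprayed with compound in aqueous acetone at roughly 0.0156–0.500 kg/ha and held in the greenhouse.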

[5] = system: GALAP (Galium); assay: Preemergence herbicidal evaluation; assay type: in vivo, Galium aparine; details: rated 4-5 weeks after treatment, rating scale 0-9
How it was run: as §3

[6] = system: TRZAWR (Wheat, Winter, cv Riband); assay: Postemergence herbicidal evaluation; assay type: in vivo, Triticum aestivum; details: postemergence
How it was run: as §2

[7] = system: GALAP (Galium); assay: Postemergence herbicidal evaluation; assay type: in vivo, Galium aparine; details: postemergence
How it was run: as §2

[8] = system: GLXMAW (Soybean, Williams); assay: Postemergence herbicidal evaluation; assay type: in vivo, Glycine max, (L.) Merr. cv Williams; details: postemergence
How it was run: as §2

[9] = system: ECHORC (Watergrass (Calif.)); assay: Preemergence weed control under flooded paddy conditions; assay type: in vivo, Echinochloa oryzoides; details: rated 3-4 weeks after treatment
How it was run: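 Herbicidal effect is scored visually on a 0-9 scale against an untreated control, three to four weeks after compounds are pipetted into the flood water (1.5 to 3 cm deep) over seeds planted in silt loam at 0.5 cm depth. Rates: about 0.0313 to 0.500 kg/ha.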

[10] = system: AMBEL (Ragweed, Common); assay: Postemergence herbicidal evaluation; assay type: in vivo, Ambrosia artemisifolia; details: postemergence
How it was run: as §2

[11] = system: SETVI (Foxtail, Green); assay: Preemergence herbicidal evaluation; assay type: in vivo, Setaria viridis; details: rated 4-5 weeks after treatment, rating scale 0-9
How it was run: as §3

[12] = system: MOOVA (Monochoria); assay: Preemergence weed control under flooded paddy conditions; assay type: in vivo, Monochoria vaginalis; details: rated 3-4 weeks after treatment
How it was run: as §1

Cn1c(C(F)(F)F)cc(=O)n(-c2cc(N=C3SCC(=O)N3Cc3ccc(Cl)cc3)c(Cl)cc2F)c1=O [Compound 145, 3-{4-Chloro-5-{[3-(p-chlorobenzyl)-4-oxo-2-thiazolidinylidene]amino}-2-fluorophenyl}-1-methyl-6-(trifluoromethyl)-2,4(1H,3H)-pyrimidinedione]
herbicidal effect rating, SAGPY ([1]; 0.0313 kg/ha): 0.0 | herbicidal effect rating, SAGPY ([1]; 0.0625 kg/ha): 2.0 | herbicidal effect rating, SAGPY ([1]; 0.1250 kg/ha): 5.0 | herbicidal effect rating, SAGPY ([1]; 0.2500 kg/ha): 5.0 | herbicidal effect rating, CYPSE ([2]; 0.1250 kg/ha): 9.0 | herbicidal effect rating, CYPSE ([2]; 0.2500 kg/ha): 9.0 | herbicidal rating CASOB ([3]; rate 0.0156 kg/ha): 1.0 | herbicidal rating CASOB ([3]; rate 0.0313 kg/ha): 2.0 | herbicidal rating CASOB ([3]; rate 0.0625 kg/ha): 5.0 | Preemergence herbicidal rating ORYSAT ([4]; rate 0.0156 kg/ha): 1.0 | Preemergence herbicidal rating ORYSAT ([4]; rate 0.0313 kg/ha): 1.0 | Preemergence herbicidal rating ORYSAT ([4]; rate 0.0625 kg/ha): 2.0 | Preemergence herbicidal rating ORYSAT ([4]; rate 0.1250 kg/ha): 3.0 | Preemergence herbicidal rating ORYSAT ([4]; rate 0.2500 kg/ha): 1.0 | Preemergence herbicidal rating GALAP ([5]; rate 0.0156 kg/ha): 0.0 | Preemergence herbicidal rating GALAP ([5]; rate 0.0313 kg/ha): 0.0 | Preemergence herbicidal rating GALAP ([5]; rate 0.0625 kg/ha): 0.0 | Preemergence herbicidal rating GALAP ([5]; rate 0.1250 kg/ha): 1.0 | Preemergence herbicidal rating GALAP ([5]; rate 0.2500 kg/ha): 3.0 | herbicidal rating TRZAWR ([6]; rate 0.0156 kg/ha): 3.0 | herbicidal rating TRZAWR ([6]; rate 0.0313 kg/ha): 3.0 | herbicidal rating TRZAWR ([6]; rate 0.0625 kg/ha): 4.0 | herbicidal rating GALAP ([7]; rate 0.0156 kg/ha): 1.0 | herbicidal rating GALAP ([7]; rate 0.0313 kg/ha): 4.0 | herbicidal rating GALAP ([7]; rate 0.0625 kg/ha): 7.0 | herbicidal rating GLXMAW ([8]; rate 0.0156 kg/ha): 4.5 | herbicidal rating GLXMAW ([8]; rate 0.0313 kg/ha): 5.0 | herbicidal rating GLXMAW ([8]; rate 0.0625 kg/ha): 5.5 | herbicidal effect rating, ECHORC ([9]; 0.0313 kg/ha): 6.0 | herbicidal effect rating, ECHORC ([9]; 0.0625 kg/ha): 6.0 | herbicidal effect rating, ECHORC ([9]; 0.1250 kg/ha): 7.0 | herbicidal effect rating, ECHORC ([9]; 0.2500 kg/ha): 7.0 | herbicidal rating AMBEL ([10]; rate 0.0156 kg/ha): 9.0 | herbicidal rating AMBEL ([10]; rate 0.0313 kg/ha): 9.0 | herbicidal rating AMBEL ([10]; rate 0.0625 kg/ha): 9.0 | Preemergence herbicidal rating SETVI ([11]; rate 0.0156 kg/ha): 1.0 | Preemergence herbicidal rating SETVI ([11]; rate 0.0313 kg/ha): 0.0 | Preemergence herbicidal rating SETVI ([11]; rate 0.0625 kg/ha): 7.0 | Preemergence herbicidal rating SETVI ([11]; rate 0.1250 kg/ha): 3.0 | Preemergence herbicidal rating SETVI ([11]; rate 0.2500 kg/ha): 7.0 | herbicidal effect rating, MOOVA ([12]; 0.0313 kg/ha): 4.0 | herbicidal effect rating, MOOVA ([12]; 0.0625 kg/ha): 6.0 | herbicidal effect rating, MOOVA ([12]; 0.1250 kg/ha): 9.0 | herbicidal effect rating, MOOVA ([12]; 0.2500 kg/ha): 9.0

Cc1ccc(CN2C(=O)CSC2=Nc2cc(-n3c(=O)cc(C(F)(F)F)n(C)c3=O)c(F)cc2Cl)cc1C [Compound 147, 3-{4-Chloro-5-{[3-(3,4-dimethylbenzyl)-4-oxo-2-thiazolidinylidene]amino}-2-fluorophenyl}-1-methyl-6-(trifluoromethyl)-2,4(1H,3H)-pyrimidinedione]
herbicidal effect rating, SAGPY ([1]; 0.0313 kg/ha): 0.0 | herbicidal effect rating, SAGPY ([1]; 0.0625 kg/ha): 0.0 | herbicidal effect rating, SAGPY ([1]; 0.1250 kg/ha): 0.0 | herbicidal effect rating, SAGPY ([1]; 0.2500 kg/ha): 2.0 | herbicidal effect rating, CYPSE ([2]; 0.2500 kg/ha): 0.0 | herbicidal rating CASOB ([3]; rate 0.0156 kg/ha): 1.0 | herbicidal rating CASOB ([3]; rate 0.0313 kg/ha): 1.0 | herbicidal rating CASOB ([3]; rate 0.0625 kg/ha): 2.0 | Preemergence herbicidal rating ORYSAT ([4]; rate 0.0156 kg/ha): 0.0 | Preemergence herbicidal rating ORYSAT ([4]; rate 0.0313 kg/ha): 0.0 | Preemergence herbicidal rating ORYSAT ([4]; rate 0.0625 kg/ha): 0.0 | Preemergence herbicidal rating ORYSAT ([4]; rate 0.1250 kg/ha): 0.0 | Preemergence herbicidal rating ORYSAT ([4]; rate 0.2500 kg/ha): 0.0 | Preemergence herbicidal rating GALAP ([5]; rate 0.0156 kg/ha): 0.0 | Preemergence herbicidal rating GALAP ([5]; rate 0.0313 kg/ha): 0.0 | Preemergence herbicidal rating GALAP ([5]; rate 0.0625 kg/ha): 0.0 | Preemergence herbicidal rating GALAP ([5]; rate 0.1250 kg/ha): 1.0 | Preemergence herbicidal rating GALAP ([5]; rate 0.2500 kg/ha): 1.0 | herbicidal rating TRZAWR ([6]; rate 0.0156 kg/ha): 2.5 | herbicidal rating TRZAWR ([6]; rate 0.0313 kg/ha): 3.5 | herbicidal rating TRZAWR ([6]; rate 0.0625 kg/ha): 4.0 | herbicidal rating GALAP ([7]; rate 0.0156 kg/ha): 0.0 | herbicidal rating GALAP ([7]; rate 0.0313 kg/ha): 1.0 | herbicidal rating GALAP ([7]; rate 0.0625 kg/ha): 3.0 | herbicidal rating GLXMAW ([8]; rate 0.0156 kg/ha): 5.5 | herbicidal rating GLXMAW ([8]; rate 0.0313 kg/ha): 5.5 | herbicidal rating GLXMAW ([8]; rate 0.0625 kg/ha): 6.0 | herbicidal effect rating, ECHORC ([9]; 0.0313 kg/ha): 5.0 | herbicidal effect rating, ECHORC ([9]; 0.0625 kg/ha): 7.0 | herbicidal effect rating, ECHORC ([9]; 0.1250 kg/ha): 9.0 | herbicidal effect rating, ECHORC ([9]; 0.2500 kg/ha): 9.0 | herbicidal rating AMBEL ([10]; rate 0.0156 kg/ha): 6.0 | herbicidal rating AMBEL ([10]; rate 0.0313 kg/ha): 9.0 | herbicidal rating AMBEL ([10]; rate 0.0625 kg/ha): 7.0 | Preemergence herbicidal rating SETVI ([11]; rate 0.0156 kg/ha): 1.0 | Preemergence herbicidal rating SETVI ([11]; rate 0.0313 kg/ha): 0.0 | Preemergence herbicidal rating SETVI ([11]; rate 0.0625 kg/ha): 0.0 | Preemergence herbicidal rating SETVI ([11]; rate 0.1250 kg/ha): 1.0 | Preemergence herbicidal rating SETVI ([11]; rate 0.2500 kg/ha): 4.0 | herbicidal effect rating, MOOVA ([12]; 0.0313 kg/ha): 7.0 | herbicidal effect rating, MOOVA ([12]; 0.0625 kg/ha): 9.0 | herbicidal effect rating, MOOVA ([12]; 0.1250 kg/ha): 9.0 | herbicidal effect rating, MOOVA ([12]; 0.2500 kg/ha): 9.0
